Experimental data reported in patent US10583113B2, “Cromolyn compositions for treatment of pulmonary fibrosis” (Respivant Sciences, GmbH, priority 2016, dated 2020).

Columns and labels:
[1] = Pharmacokinetics of cromolyn sodium in plasma and lung after single intraperitoneal injection; format: in vivo, male BALB/c mice; conditions: single IP injection, 10 mg/kg and 100 mg/kg
Description: BALB/c male mice, weighing 22±2 g, were provided by BioLasco Taiwan. All animals were maintained in a well-controlled temperature (20-24° C.) and humidity (30%-70%) environment with 12 hours light/dark cycles. The mice were given free access to a standard lab diet [MFG (Oriental Yeast Co., Ltd., Japan)] and autoclaved tap water.
The solution was administered to the mice by IP injection at concentrations of 10 mg/kg and 100 mg/kg. The dosing volume for both dose strengths was 5 mL/kg.
The mice were sedated under general inhalant anesthesia (3% isoflurane) for blood collection by cardiac puncture. […]
The plasma samples were processed using acetonitrile (ACN) precipitation and analyzed by LC-MS/MS. […] The processed plasma samples were stored at −70° C. until receiving LC-MS/MS analysis, at which time peak areas were recorded, and the concentrations of the test substance in the unknown plasma samples were determined using the respective calibration curve. The reportable linear range of the assay was determined, along with the lower limit of quantitation (LLQ).
Each lung was homogenized in 1.5 mL cold phosphate-buffered saline (PBS) at pH 7.4 for 10 seconds on ice. The lung homogenate was centrifuged at 5,400×g for 15 minutes at 4° C., and the supernatant was subsequently processed using ACN precipitation and analyzed by LC-MS/MS. […]

[2] = available formulations of DSCG, not the compositions of the disclosure; cited from earlier work

Exposure of cromolyn sodium in plasma and lungs [1]: Significant exposure
SMILES: O=C([O-])c1cc(=O)c2c(OCC(O)COc3cccc4oc(C(=O)O)cc(=O)c34)cccc2o1.[Na+] [cromolyn sodium, disodium 5,5′-(2-hydroxypropane-1,3-diyl)bis(oxy)bis(4-oxo-4H-chromene-2-carboxylate)]
Bioavailability of the available formulations [2]: approximately 1%
